Measured values as given in PubChem BioAssay (NCI).
“And” between values parts separate entries of the source, which are not always exact repeats. Equal entries are not always repeated.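 Grown in 96-well plates, cells were treated for 48 hours with each compound at five concentrations. Insufficient inhibition: endpoint recorded as highest concentration tested. GI50 = concentration required for 50% inhibition of growth. At the TGI there is no net growth.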

What was measured:
Assay in all cases: NCI tumour cell line growth inhibition, 48 h
SW-620 colon = system: SW-620 colon
786-0 renal = system: 786-0 renal
HL-60(TB) leukemia = system: HL-60(TB) leukemia
IGROV1 ovarian = system: IGROV1 ovarian
NCI-H460 lung = system: NCI-H460 lung
SN12C renal = system: SN12C renal
HCT-15 colon = system: HCT-15 colon
COLO 205 colon = system: COLO 205 colon
LOX IMVI melanoma = system: LOX IMVI melanoma

SMILES	GI50 (SW-620 colon)	TGI (SW-620 colon)	GI50 (786-0 renal)	TGI (786-0 renal)	GI50 (HL-60(TB) leukemia)	TGI (HL-60(TB) leukemia)	GI50 (IGROV1 ovarian)	TGI (IGROV1 ovarian)	GI50 (NCI-H460 lung)	TGI (NCI-H460 lung)	GI50 (SN12C renal)	TGI (SN12C renal)	GI50 (HCT-15 colon)	TGI (HCT-15 colon)	GI50 (COLO 205 colon)	TGI (COLO 205 colon)	GI50 (LOX IMVI melanoma)	TGI (LOX IMVI melanoma)
O=C(Nc1cccc(-n2cc(-c3ccncc3)c(-c3ccc(O)c(Cl)c3)n2)c1)c1ccc2c(c1)OCCO2	> 100 µM	> 100 µM	3.27 µM	> 100 µM	4.54 µM	> 100 µM	> 100 µM	> 100 µM	6.2 µM	> 100 µM	55.7 µM	> 100 µM	3.7 µM	> 100 µM	89.2 µM	> 100 µM	4.77 µM	> 100 µM
Cc1cc(C(=O)/C=C/c2ccc[nH]2)ccc1-n1ccc(C(F)(F)F)n1	10.7 µM	> 100 µM	3.54 µM	> 100 µM	0.457 µM	> 100 µM	2.02 µM	4.56 µM	24.3 µM	> 100 µM	6.44 µM	> 100 µM	11.1 µM	> 100 µM	21.8 µM	> 100 µM	34.8 µM	> 100 µM
NCCCCCNc1noc(Cc2c[nH]c3cc(Br)ccc23)n1	0.707 µM	16.9 µM	5.24 µM	27.1 µM	1.66 µM	9.15 µM	5.09 µM	27.4 µM	3.12 µM	12 µM	3.54 µM	16.9 µM	0.834 µM	17.9 µM	1.52 µM	3.22 µM	2.81 µM	17.6 µM
CN(C)C(=O)OCc1nc2c(N3CCOCC3)nc(-c3ccccc3)nc2n1C	0.305 µM	0.899 µM	0.892 µM	2.31 µM	0.375 µM	1.96 µM	0.618 µM	1.92 µM	1.66 µM	3.52 µM	0.912 µM	2.31 µM	0.22 µM	0.561 µM	1.32 µM	2.97 µM	0.183 µM	0.402 µM
Cc1c(Cl)c(=O)oc2cc(OC/C=C3\CCC(=O)O3)ccc12	13.5 µM	35.6 µM	12.8 µM	29.3 µM	–	–	12.9 µM	27.5 µM	26.9 µM	> 100 µM	16.8 µM	41.4 µM	15.3 µM	30 µM	12.9 µM	30.1 µM	15.6 µM	29.7 µM
COc1ccc2c3c([nH]c(=O)c2c1C(=O)O)-c1ccccc1CC3	–	> 100 µM	–	> 100 µM	–	> 100 µM	–	> 100 µM	–	> 100 µM	–	> 100 µM	–	> 100 µM	–	> 100 µM	–	> 100 µM
O=C(O)c1cc2ccccc2c2c3c(ccc12)OCO3	245 µM	> 1000 µM	273 µM	936 µM	172 µM	440 µM	201 µM	738 µM	265 µM	> 1000 µM	174 µM	> 1000 µM	245 µM	> 1000 µM	171 µM	368 µM	223 µM	766 µM
Nc1nonc1-c1nc2ccccc2n1Cc1ccc(F)cc1	3.54 µM	> 100 µM	29.1 µM	> 100 µM	–	–	5.25 µM	> 100 µM	4.25 µM	> 100 µM	–	–	3.6 µM	> 100 µM	5.02 µM	> 100 µM	6.48 µM	> 100 µM
Nc1ncnc2c1ncn2C1OC(COS(N)(=O)=O)C(O)C1O (stereo unspecified)	–	–	0.00213 µM and 0.0204 µM	0.00465 µM and 0.0433 µM	< 0.001 µM	0.00378 µM	0.00291 µM and 0.0248 µM	0.00781 µM and 0.065 µM	–	–	< 0.001 µM	–	0.00255 µM	0.0071 µM	0.00239 µM and 0.0219 µM	0.00508 µM and 0.0432 µM	0.018 µM	0.0382 µM
CCCOc1cc2ccccc2cc1C(=O)Nc1nc(NC)c2c(ccc3nccc32)[nH]1	0.383 µM	1.74 µM	0.613 µM	2.07 µM	0.23 µM	0.611 µM	1.17 µM	2.71 µM	0.348 µM	1.13 µM	1.72 µM	3.48 µM	0.24 µM	1.03 µM	0.479 µM	1.81 µM	0.42 µM	1.76 µM
Cc1ccc(S(=O)(=O)OCC#CCOS(=O)(=O)c2ccc(C)cc2)cc1	1.8 µM	3.96 µM	2.57 µM	7.15 µM	1.51 µM	3.55 µM	0.992 µM	2.86 µM	1.8 µM	4.07 µM	3.89 µM	17.3 µM	3.2 µM	14.9 µM	2.42 µM	5.72 µM	1.15 µM	2.56 µM
N#Cc1cnc2cc(OC[C@@H](O)CO)c(NC(=O)C3CCCC3)cc2c1Nc1ccc(OCc2cccc(F)c2)c(Cl)c1	1.53 µM	6.78 µM	4.51 µM	11.7 µM	0.789 µM	2.76 µM	–	–	1.05 µM	4.73 µM	1.88 µM	28.6 µM	2.45 µM	> 50 µM	4.28 µM	26 µM	1.01 µM	2.28 µM
Cc1coc2c1C(=O)C(=O)c1ccccc1-2	–	2.92 µM	–	3.24 µM	–	–	–	3.44 µM	–	3.18 µM	–	2.12 µM	–	3.42 µM	–	–	–	1.05 µM
O=S(=O)(NCCNc1nccc(-c2c(-c3ccc(F)c(O)c3)nc3sccn23)n1)c1ccc(Cl)cc1	> 50 µM	> 50 µM	3.38 µM	13.6 µM	–	–	1.45 µM	> 50 µM	1.93 µM	> 50 µM	1.54 µM	> 50 µM	1.67 µM	> 50 µM	–	–	1.78 µM	> 50 µM
NCCCOc1cc2ccccc2cc1C(=O)Nc1ccc(Cl)cc1OC(=O)c1cc2ccccc2cc1OCCCN	0.181 µM	0.345 µM	0.172 µM	0.327 µM	0.517 µM	2.37 µM	–	–	0.195 µM	0.345 µM	0.742 µM	2.23 µM	0.468 µM	1.15 µM	1.27 µM	2.63 µM	0.162 µM	0.316 µM
